According to patent publication US5559101A, “L-ribofuranosyl nucleosides” (priority 1994, dated 1996):
≈ marks a conversion by molar mass, not a printed value. Where two headings read alike, the source gives them in different places.

How the values were obtained:
OM-1 (colon) = assay: Radiometric growth inhibition of tumor cells, OM-1; format: cell-based, human; parameters: % SURVIVAL TUMOR: concentration or dose not given beside the values; conditions: for IC50: Homo sapiens
Source text: (§1) CELL LINES: Eight different established human cell lines CALU (lung), COLO320 (colon), H578St (breast), HT-29 (colon), MCF-7 (breast), OM-1 (colon), SKLU (lung) and SKMES(lung), and two control cell lines (bone marrow and/or fibroblast cells) were utilized. All cell lines were obtained from the Tumor Cloning Laboratory, Institute for Drug Development, Cancer Therapy and Research Center, San Antonio, Tex. All cell lines grew as monolayers in the appropriate culture medium supplemented with heat-inactivated calf serum. All reagents were obtained from Grand Island Biological Co., Grand Island, N.Y.
(§2) The iv formulations of the compounds of the present invention were prepared with sterile buffered saline and stored at -70° C. until required for testing.
(§3) Following trypsinization, tumor cells were suspended in tissue culture medium and exposed to the antitumor agents continuously at three different concentrations: 10, 1 and 0.1 μg/ml.
(§4) RADIOMETRIC MEASUREMENT OF GROWTH INHIBITION: Growth inhibition was assessed with the BACTEC System 460 (Johnston Laboratories, Towson, Md.) after addition of the antitumor agent to the cell in the respective growth medium containing ^14 C-glucose at a final concentration of 2 μCi/ml.
(§5) Two mls of the tumor cell suspension containing radioactive glucose were seeded into sterile, disposable 15 ml vials by injection through self-sealing rubber-aluminum caps. […] The seeded vials were then incubated at 37° C. Measurement of the release of ^14 CO2 resulting from the metabolism of ^14 C-glucose were performed on days 6, 9, 12 and 15 in the BACTEC instrument. This instrument flushes the ^14 CO2 containing air out of the vials into an ionization chamber that converts dpm to growth index values. […] Each data point represents triplicate values.
(§6) All compounds were dosed on an equimilimolar basis.

HS578T (breast) = assay: Radiometric growth inhibition of tumor cells, HS578T; format: cell-based, human; conditions: HS578T
Source text: as §1, §2, §3, §4, §5, §6

SKLU (lung) = assay: Radiometric growth inhibition of tumor cells, SKLU; format: cell-based, human; parameters: % SURVIVAL TUMOR: concentration or dose not given beside the values; conditions: SKLU; for IC50: Homo sapiens, concentration required to kill 50%, read-out: IC 50; for % SURVIVAL TUMOR: continuous exposure
Source text: as §1, §2, §3, §4, §5, §6

MCF-7 (breast) = assay: Radiometric growth inhibition of tumor cells, MCF-7; format: cell-based, human; parameters: % SURVIVAL TUMOR: concentration or dose not given beside the values; conditions: MCF-7; for IC50: Homo sapiens, MCF7, concentration required to kill 50%, read-out: IC 50; for % SURVIVAL TUMOR: continuous exposure
Source text: as §1, §2, §3, §4, §5, §6

COLO320 (colon) = assay: Radiometric growth inhibition of tumor cells, COLO320; format: cell-based, human; parameters: % SURVIVAL TUMOR: concentration or dose not given beside the values; conditions: COLO320; for % SURVIVAL TUMOR: continuous exposure; for IC50: Homo sapiens, COLO 320, concentration required to kill 50%, read-out: IC 50
Source text: as §1, §2, §3, §4, §5, §6

[1] = In vitro survival of bone marrow control cells (radiometric BACTEC); format: cell-based; parameters: concentration or dose not given beside the values
Source text: as §1, §2, §3, §4, §5, §6

CALU (lung) = assay: Radiometric growth inhibition of tumor cells, CALU; format: cell-based, human; parameters: % SURVIVAL TUMOR: concentration or dose not given beside the values; conditions: for IC50: Homo sapiens, concentration required to kill 50%, read-out: IC 50
Source text: as §1, §2, §3, §4, §5, §6

HT29 (colon) = assay: Radiometric growth inhibition of tumor cells, HT29; format: cell-based, human; parameters: % SURVIVAL TUMOR: concentration or dose not given beside the values; conditions: for IC50: Homo sapiens, HT-29, concentration required to kill 50%, read-out: IC 50
Source text: as §1, §2, §3, §4, §5, §6

[2] = OM-1, concentration required to kill 50%, read-out: IC 50
[3] = bone marrow control cells, continuous exposure, read-out: % SURVIVAL BONE MARROW

In the case of `O=c1[nH]cnc2c1ncn2[C@H]1O[C@@H](CO)[C@H](O)[C@@H]1O` [β-:-ribofuranosyl hypoxanthine, 9-β-L-Ribofuranosylhypoxanthine], the IC50 (OM-1 (colon); [2]) is reported as 82.7 µg/mL (≈ 308 µM), the “% SURVIVAL TUMOR” value (OM-1 (colon); OM-1, continuous exposure) is reported as 87.3% and the “% SURVIVAL TUMOR” value (HS578T (breast); continuous exposure) is reported as 93.4%. The IC50 (HS578T (breast); Homo sapiens, Hs-578T, concentration required to kill 50%, read-out: IC 50) was > 10 µg/mL, the IC50 (SKLU (lung)) was 48.1 µg/mL (≈ 179 µM) and the “% SURVIVAL TUMOR” value (SKLU (lung)) was 82.5%. The IC50 (MCF-7 (breast)) was 38.1 µg/mL (≈ 142 µM), the “% SURVIVAL TUMOR” value (MCF-7 (breast)) was 96.8% and the “% SURVIVAL TUMOR” value (COLO320 (colon)) was 68.2%. The IC50 (COLO320 (colon)) was 17.9 µg/mL (≈ 66.7 µM) and the viability [1, 3] was 118%.
For `O=c1ccn([C@@H]2CC[C@H](CO)O2)c(=O)[nH]1` [2',3'-β-L-dideoxy ribofuranosyl uracil, 2',3'-Dideoxy-β-L-uridine], the “% SURVIVAL TUMOR” value (CALU (lung); CALU, continuous exposure) was 0.4%, the IC50 (CALU (lung); CALU) was 0.623 µg/mL (≈ 2.94 µM) and the viability ([1]; bone marrow cells) was 79.8%.
For `Nc1nc(O)c2ncn([C@H]3O[C@@H](CO)[C@H](O)[C@@H]3O)c2n1` [β-L-ribofuranosyl guanine, 9-β-L-Ribofuranosylguanine], the IC50 (OM-1 (colon); [2]) was 0.097 µg/mL (≈ 0.342 µM), the “% SURVIVAL TUMOR” value (OM-1 (colon); OM-1, continuous exposure) was 44.7% and the “% SURVIVAL TUMOR” value (HT29 (colon); HT29, continuous exposure) was 80.9%. For the same compound, the IC50 (HT29 (colon); HT29) was > 10 µg/mL and the viability [1, 3] was 170%.
In the case of `Nc1ccn([C@H]2O[C@@H](CO)[C@H](O)[C@@H]2O)c(=O)n1` [β-L-ribofuranosyl cytosine, 1-β-L-Ribofuranosylcytosine], the IC50 (OM-1 (colon)) is reported as 5.9 µg/mL (≈ 24.3 µM), the “% SURVIVAL TUMOR” value (OM-1 (colon); OM-1, continuous exposure) is reported as 39.2% and the viability [1, 3] is reported as 72.6%.
In the case of `O=c1ccn([C@H]2O[C@@H](CO)[C@H](O)[C@@H]2O)c(=O)[nH]1` [β-L-ribofuranosyl uracil, 1-β-L-Ribofuranosyluracil], the IC50 (OM-1 (colon); [2]) is reported as 0.094 µg/mL (≈ 0.385 µM), the “% SURVIVAL TUMOR” value (OM-1 (colon); human, om-1 colon tumor cells) is reported as 30.8% and the IC50 (HT29 (colon); HT29) is reported as > 10 µg/mL. For the same compound, the “% SURVIVAL TUMOR” value (HT29 (colon); human, ht29 colon tumor cells) was 78.7% and the viability ([1]; bone marrow cells) was 112%.
In the case of `O=C(OC[C@@H]1O[C@@H](n2ccc(=S)[nH]c2=O)[C@@H](OC(=O)c2ccccc2)[C@H]1OC(=O)c1ccccc1)c1ccccc1` [1-(2,3,5-Tri-O-benzoyl-α-L-ribofuranosyl)-4-thiouracil], the “% SURVIVAL TUMOR” value (HT29 (colon); HT29, continuous exposure) is reported as 75%, the IC50 (HT29 (colon); HT29) is reported as > 10 µg/mL and the viability [1, 3] is reported as 85.9%.
For `NC1=N[C@H]2O[C@@H](CO)[C@H](O)[C@H]2O1` [2-Amino-β-L-arabinofurano[1',2':4,5]oxazoline], the IC50 (OM-1 (colon); [2]) was 5 µg/mL (≈ 28.7 µM), the “% SURVIVAL TUMOR” value (OM-1 (colon); OM-1, continuous exposure) was 41.3% and the “% SURVIVAL TUMOR” value (CALU (lung); CALU, continuous exposure) was 89%. For the same compound, the IC50 (CALU (lung); CALU) was 44.6 µg/mL (≈ 256 µM), the IC50 (MCF-7 (breast)) was 187 µg/mL (≈ 1070 µM) and the “% SURVIVAL TUMOR” value (MCF-7 (breast)) was 88.8%. For the same compound, the viability [1, 3] was 110%.
For `Nc1ncnc2c1ncn2[C@@H]1C[C@@H](O)[C@H](CO)O1` [2'-β-L-deoxy ribofuranosyl adenine], the IC50 (CALU (lung); CALU) was 0.696 µg/mL (≈ 2.77 µM), the “% SURVIVAL TUMOR” value (CALU (lung); human, calu lung tumor cells) was 28.9% and the viability ([1]; bone marrow cells) was 64.9%.
With `O=c1[nH]cnc2c1ncn2[C@@H]1C[C@@H](O)[C@H](CO)O1` [2'-β-L-deoxy ribofuranosyl hypoxanthine, 2'-Deoxy-β-L-inosine] the IC50 (OM-1 (colon); [2]) was > 10 µg/mL, the “% SURVIVAL TUMOR” value (OM-1 (colon); human, om-1 colon tumor cells) was 83.1% and the viability ([1]; bone marrow cells) was 110%.
In the case of `O=c1[nH]c(=O)n([C@H]2O[C@@H](CO)[C@H](O)[C@@H]2O)cc1F` [β-L-ribofuranosyl-5-fluorouracil, 1-β-L-Ribofuranosyl-5-fluorouracil], the IC50 (OM-1 (colon); [2]) is reported as 37.8 µg/mL (≈ 144 µM), the “% SURVIVAL TUMOR” value (OM-1 (colon); OM-1, continuous exposure) is reported as 71.9% and the IC50 (SKLU (lung)) is reported as 32.2 µg/mL (≈ 123 µM). The “% SURVIVAL TUMOR” value (SKLU (lung)) was 69.7%, the “% SURVIVAL TUMOR” value (COLO320 (colon)) was 81.9% and the IC50 (COLO320 (colon)) was 188 µg/mL (≈ 717 µM). For the same compound, the “% SURVIVAL TUMOR” value (HT29 (colon); HT29, continuous exposure) was 64.7%, the IC50 (HT29 (colon); HT29) was 51 µg/mL (≈ 195 µM) and the viability [1, 3] was 130%.
In the case of `O=c1ccn2c(n1)O[C@H]1[C@@H](O)[C@H](CO)O[C@H]12` [O^2,O^2' -Anhydro-1-α-L-ribofuranosyluracil], the IC50 (OM-1 (colon); [2]) is reported as 2.97 µg/mL (≈ 13.1 µM), the “% SURVIVAL TUMOR” value (OM-1 (colon); OM-1, continuous exposure) is reported as 46.4% and the viability [1, 3] is reported as 70.9%.
